{
  "source": "patent US12721912B2",
  "about": "“Radiopharmaceutical compositions for actinium in targeted radionuclide therapy” (Curium US LLC, priority 2024, dated 2026)",
  "key": {"[1]": {"experiment": "Metal scavenger (DTPA) formulations: radiochemical stability by radio-TLC at 40° C. (Table 17)", "assay_type": "physicochemical", "settings": "11.3 mg/ml sodium ascorbate formulation, 0.0005-0.01 mg/ml DTPA", "quoted_text": "The mixture was then divided into four samples which were diluted with suitable amount WFI and DTPA solution to achieve concentrations of 0.0005 mg/ml, 0.001 mg/ml, 0.005 mg/ml, and 0.01 mg/ml of DTPA in the final formulations. […] The samples were kept at 40° C."}, "[2]": {"experiment": "Process A / process B injection stored at 5, 22.5, 32.5 and 40° C.: radiochemical purity by radio-TLC (Tables 21, 22)", "assay_type": "physicochemical", "settings": "5-40° C.", "method": "The radio-TLC method was performed as follows: 5 μl or 10 μl of the sample was spotted onto the application line (1.5 cm from the lower edge of the plate) of a TLC plate (Merck Silica Gel 60 F254, plate size 20×100 mm). The TLC plate was developed in a TLC chamber using 0.1 M citric acid (adjusted to pH 5) as mobile phase. The plate was removed from the chamber when the eluent front reached 7.5 cm distance from the application line. The plates were analyzed with a radio-TLC scanner after secular equilibrium between ^225Ac and daughter nuclides was reached (minimum of 7 hours). […]\nIn process B, radiolabeling is performed in 11.3 mg/ml sodium ascorbate solution and the 0.04 M HCl is neutralized by adding 1 ml of 0.04 M NaOH solution into the reactor prior to labeling. The final formulation in process B is prepared to an intended radioactivity concentration by diluting with 11.3 mg/ml sodium ascorbate solution.\nTo compare the processes, ^225Ac-PSMA I&T injection was prepared at around 1 mCi scale using both processes. […] Radioactivity concentration was 468 kBq/ml in process A and 969 kBq/ml in process B. […]\nThe purity of ^225Ac-PSMA I&T samples was analyzed by the radio-TLC and HPLC fraction collection methods described previously at different time points."}, "[3]": {"system": "patients with mCRPC", "settings": "cited from earlier work"}, "[4]": {"settings": "cited from earlier work"}, "[5]": {"system": "patients with mCRPC", "settings": "cited from earlier work", "remark": "listed apart in the source"}, "[6]": {"settings": "subgroup of 11 patients with prior ^177Lu-PSMA treatment"}, "[7]": {"settings": "subgroup with prior ^177Lu-PSMA radioligand therapy"}},
  "note": "Read-outs that look alike come from different tables or passages of the source.",
  "data": [
    {"substance": "(25)-2-[[(1S)-1-carboxylato-5-[[8-[[(5R)-5-carboxylato-5-[[(2R)-2-[[(2R)-2-[[(4R)-4-carboxylato-4-[4,7,10-tris(carboxylatomethyl)-1,4,7,10-tetrazacyclododec-1-yl]butanoyl]amino]-3-(4-hydroxy-3-iodophenyl)propanoyl]amino]-3-phenylpropanoyl]amino]pentyl]amino]-8-oxooctanoyl]amino]pentyl]carbamoylamino]pentanedioate; hydron; actinium-225(3+) [^225Ac-PSMA I&T]", "values": [
      {"measurement": "Effect of DTPA on the stability", "setting": "[1]", "result": "significantly reduce the stability"},
      {"measurement": "Radiochemical purity by the radio-TLC method after 120-hour time point", "setting": "[2]", "result": "greater than 98%"},
      {"measurement": "Biochemical response PSA50", "setting": "[3]; 1 patient, 8 MBq per cycle", "result": 100, "unit": "%"},
      {"measurement": "Major toxicity", "setting": "[3]; 1 patient, 8 MBq per cycle", "result": "xerostomia"},
      {"measurement": "Main TAT-related side effect", "setting": "[3]; already preexisting after 10 cycles of RLT", "result": "grade 2 xerostomia"},
      {"measurement": "Hematological side effects", "setting": "[3]; human, in vivo", "result": "No TAT-related grade 3/4 hematological side effects"},
      {"measurement": "Response", "setting": "[3]; two cycles after failure of ^177Lu-PSMA-617", "result": "encouraging response"},
      {"measurement": "Absorbed dose, left kidney", "setting": "[4]; 8.1 MBq, SPECT at 24 h p. i.", "result": "0.18 SV(RBE=5)MBq"},
      {"measurement": "Absorbed dose, right kidney", "setting": "[4]; 8.1 MBq, SPECT at 24 h p. i.", "result": "0.17 SV(RBE=5)MBq"},
      {"measurement": "Absorbed dose, small lesion in the right hip", "setting": "[4]; human, in vivo", "result": "0.26 SV(RBE=5)MBq"},
      {"measurement": "Grade 3 anemia after TAT", "setting": "[5]; 2 of them with grade 2 anemia at baseline", "result": "3 of the 14 patients"},
      {"measurement": "Biochemical response PSA50", "setting": "[5]; 14 patients, 7.8 MBq per cycle", "result": 50, "unit": "%"},
      {"measurement": "Grade 1 nephrotoxicity", "setting": "[5]; 14 patients, FIG. 13", "result": "one"},
      {"measurement": "Hematologic toxicity", "setting": "[5]; 14 patients, FIG. 13", "result": "mild"},
      {"measurement": "Acute toxicity during hospitalization", "setting": "[5]; 14 patients", "result": "No acute toxicity"},
      {"measurement": "Best PSA response after TAT (PSA decline ≥50%)", "setting": "[5]; 14 patients", "result": 7, "unit": "patients"},
      {"measurement": "Grade 3 leukopenia", "setting": "[5]; 14 patients", "result": 1, "unit": "patient"},
      {"measurement": "Major toxicity", "setting": "[5]; 14 patients", "result": "xerostomia"},
      {"measurement": "Newly diagnosed grade 1 or 2 xerostomia after TAT", "setting": "[5]; 14 patients", "result": 5, "unit": "patients"},
      {"measurement": "No PSA decline at any time", "setting": "[5]; 14 patients", "result": "Three"},
      {"measurement": "No xerostomia at all", "setting": "[5]; 14 patients", "result": "One"},
      {"measurement": "PSA decline of any amount", "setting": "[5]; 14 patients", "result": 11, "unit": "patients"},
      {"measurement": "Preexisting xerostomia after ^177Lu-PSMA, no worsening after TAT", "setting": "[5]; 14 patients", "result": "Eight"},
      {"measurement": "Any PSA decline", "setting": "[5]; [6]", "result": 8, "unit": "patients"},
      {"measurement": "PSA decline of at least 50%", "setting": "[5]; [6]", "result": 5, "unit": "patients"},
      {"measurement": "Any PSA decline", "setting": "[5]; [7]", "result": 73, "unit": "%"},
      {"measurement": "PSA decline ≥50%", "setting": "[5]; [7]", "result": 45, "unit": "%"}
    ]}
  ]
}
